Experiments:
RD cells = assay: Cytotoxicity assay (CellTiter-Glo 2.0) on RD cells; type: cell-based, Human; details: for IC50: Homo sapiens
Experimental: (§1) Cytotoxicity assays consist in treating cells with compounds and assessing remaining viability after a defined incubation time, depending on the cell line. CellTiter-Glo® 2.0 reagent allows viability measurement by quantification of ATP present, which is an indicator of metabolically active cells.
(§2) The cancer cell lines were cultivated in their respective growth medium (see tables 6a and 6b). On day 0 of the cytotoxicity assay, the cells were harvested and seeded into a 384-well plate at a defined density in their respective growth medium (see tables 6a and 6b). Compounds to be tested were then added onto the cells and incubated for a defined duration (see tables 6a and 6b). Following incubation, CellTiter-Glo® 2.0 reagent (cat.no. G9241 from Promega) was added into the wells (vol/vol, according to the manufacturer's recommendations), plates were gently shaken and incubated for 10 minutes in the dark at room temperature. Bioluminescence was then measured with a multimode plate reader (Victor Nivo from Perkin Elmer), and cell viability and relative IC50 were determined. Table 6a: Cancer cell characteristics, culture and cytotoxic assay conditions

MDA-MB-231 cells = assay: Cytotoxicity assay (CellTiter-Glo 2.0) on MDA-MB-231 cells; type: cell-based, Human; details: incubation 3 days; for IC50: Homo sapiens, 72 h
Experimental: as §1, §2

4T1 cells = assay: Cytotoxicity assay (CellTiter-Glo 2.0) on 4T1 cells; type: cell-based, Mouse; details: incubation 2 days; for IC50: Mus musculus, 48 h
Experimental: as §1, §2

EoL-1 cells = assay: Cytotoxicity assay (CellTiter-Glo 2.0) on EoL-1 cells; type: cell-based, Human; details: incubation 1 day; for IC50: Homo sapiens, EOL1, 24 h
Experimental: as §1, §2

HUVECs = assay: Tube formation assay (anti-angiogenic activity); type: cell-based, human; details: for IC50: Homo sapiens, HUVEC
Description: Angiogenesis is a phenomenon that includes different processes, such as endothelial cell proliferation, migration and differentiation that lead to the formation of new blood vessels. Tube formation assay is a standard in vitro test to assess angiogenesis: briefly, human Umbilical Vein Endothelial cells (hereafter "HUVECs") cultivated on a gelled basement matrix spontaneously proliferate, migrate and differentiate to form tube-like structures, that appear elongated and that connect to each other to form a network.
HUVECs were cultivated in Endothelial Cell Growth Medium (cat.no. C-22010 from Promocell) supplemented with 1% PenStrep (hereafter "HUVEC medium"). On day 0, HUVECs were harvested and transferred into a 384-well plate precoated with 10 µl/well of Cultrex UltiMatrix Reduced Growth factor basement membrane (cat.no. BME001-10 from BioTechne), according to the manufacturer's instructions, at a density of 5000 cells/well in HUVEC medium. Compounds to be tested were then added onto the cells and incubated for 16 to 18 hours at 37°C. After this incubation period, the cells were stained with calcein-AM (cat.no. 10462052 from Fisher Scientific) and pictures were acquired using a confocal fluorescent microscope (IXM from Molecular Devices). Tube formation was measured with MetaXpress® Software.

SMILES | IC50 (MDA-MB-231 cells) | Cytotoxicity (MDA-MB-231 cells) | IC50 (4T1 cells) | Cytotoxicity (4T1 cells) | IC50 (EoL-1 cells) | Cytotoxicity (EoL-1 cells) | IC50 (HUVECs; commercial kinase inhibitors) | Angiogenesis inhibition (HUVECs; commercial kinase inhibitors) | further results
CSc1cc(Oc2ccnc3c2CCC(=O)N3)ccc1NC(=O)Nc1cc(C(C)(C)C)nn1-c1cccc(Cl)c1 [Compound 003, 1-(3-(tert-butyl)-1-(3-chlorophenyl)-1H-pyrazol-5-yl)-3-(2-(methylthio)-4-((7-oxo-5,6,7,8-tetrahydro-1,8-naphthyridin-4-yl)oxy)phenyl)urea] | 1 to 5 µM | ++ (50% ≤ cytotoxicity < 85%) | < 1 µM | +++ (cytotoxicity ≥ 85%) |  |  |  |  | Cytotoxicity (RD cells; 2 day-treatment): + (20 % ≤ cytotoxicity < 50%); Cytotoxicity (RD cells; 4 day-treatment): + (20 % ≤ cytotoxicity < 50%); IC50 (RD cells; 48 h, 2 day-treatment): 1 to 5 µM; IC50 (RD cells; 96 h, 4 day-treatment): 5 to 10 µM
CSc1cc(Oc2ccnc3c2OCC(=O)N3)ccc1NC(=O)Nc1ncc(C(C)(C)C)o1 [Compound 025] |  |  |  |  | < 0.001 µM | +++ (cytotoxicity ≥ 85%) |  |  | 
CC(C)(C)c1cc(NC(=O)Nc2ccc(Oc3ccnc4c3CCC(=O)N4)cc2C(F)(F)F)n(-c2ccc(F)cc2F)n1 [Compound 029, 1-[5-tert-butyl-2-(2,4-difluorophenyl)pyrazol-3-yl]-3-[4-[(7-oxo-6,8-dihydro-5H-1,8-naphthyridin-4-yl)oxy]-2-(trifluoromethyl)phenyl]urea] | 5 to 10 µM | + (20 % ≤ cytotoxicity < 50%) | 1 to 5 µM | ++ (50% ≤ cytotoxicity < 85%) | 0.01 to 0.1 µM | +++ (cytotoxicity ≥ 85%) |  |  | IC50 (HUVECs; incubation 16 to 18 hours): 0.1 to 0.5 µM; Angiogenesis inhibition (HUVECs; incubation 16 to 18 hours): ++ (80% > angiogenesis inhibition ≥ 50%)
CC(C)(C)c1coc(NC(=O)Nc2ccc(Oc3ccnc4c3CCC(=O)N4)cc2C(F)(F)F)n1 [Compound 036] | 5 to 10 µM | + (20 % ≤ cytotoxicity < 50%) | ≥ 10 µM | - (cytotoxicity < 20%) | ≥ 0.1 µM | + (20 % ≤ cytotoxicity < 50%) |  |  | Cytotoxicity (RD cells; 2 day-treatment): + (20 % ≤ cytotoxicity < 50%); Cytotoxicity (RD cells; 4 day-treatment): - (cytotoxicity < 20%); IC50 (RD cells; 48 h, 2 day-treatment): 1 to 5 µM; IC50 (RD cells; 96 h, 4 day-treatment): 1 to 5 µM
CC(C)(C)c1cc(NC(=O)Nc2ccc(Oc3ccnc4c3OCC(=O)N4)cc2C(F)(F)F)n(-c2ccc(CCN3CCOCC3)cc2)n1 [Compound 053, 1-[5-tert-butyl-2-[4-(2-morpholinoethyl)phenyl]pyrazol-3-yl]-3-[4-[(3-oxo-4H-pyrido[3,2-b][1,4]oxazin-8-yl)oxy]-2-(trifluoromethyl)phenyl]urea] | 1 to 5 µM | ++ (50% ≤ cytotoxicity < 85%) | < 1 µM | +++ (cytotoxicity ≥ 85%) | 0.01 to 0.1 µM | +++ (cytotoxicity ≥ 85%) |  |  | IC50 (HUVECs; incubation 16 to 18 hours): < 0.1 µM; Angiogenesis inhibition (HUVECs; incubation 16 to 18 hours): +++ (angiogenesis inhibition ≥ 80%)
COc1cc2nccc(Oc3ccc(NC(=O)NC4CC4)c(Cl)c3)c2cc1C(N)=O [Lenvatinib, reference compound] |  |  |  |  |  |  | < 0.1 µM | ++ (80% > angiogenesis inhibition ≥ 50%) | IC50 (EoL-1 cells; commercial kinase inhibitors): 0.001 to 0.01 µM; Cytotoxicity (EoL-1 cells; commercial kinase inhibitors): +++ (cytotoxicity ≥ 85%); IC50 (MDA-MB-231 cells; commercial kinase inhibitors): ≥ 10 µM; Cytotoxicity (MDA-MB-231 cells; commercial kinase inhibitors): - (cytotoxicity < 20 %); IC50 (4T1 cells; commercial kinase inhibitors): 1 to 5 µM; Cytotoxicity (4T1 cells; commercial kinase inhibitors): + (20 % ≤ cytotoxicity < 50 %)
Cc1ccc(F)c(NC(=O)Nc2ccc(-c3cccc4[nH]nc(N)c34)cc2)c1 [Linifanib, reference compound] |  |  |  |  |  |  | < 0.1 µM | + (50% > angiogenesis inhibition ≥ 20%) | 
COc1cc2nccc(Oc3ccc(NC(=O)Nc4cc(C)on4)c(Cl)c3)c2cc1OC [Tivozanib, reference compound] |  |  |  |  |  |  | 0.1 to 0.5 µM | + (50% > angiogenesis inhibition ≥ 20%) | Cytotoxicity (RD cells; 2 day-treatment, commercial kinase inhibitors): - (cytotoxicity < 20 %); Cytotoxicity (RD cells; 4 day-treatment, commercial kinase inhibitors): - (cytotoxicity < 20 %); IC50 (RD cells; 48 h, 2 day-treatment, commercial kinase inhibitors): ≥ 10 µM; IC50 (RD cells; 96 h, 4 day-treatment, commercial kinase inhibitors): ≥ 10 µM; IC50 (MDA-MB-231 cells; commercial kinase inhibitors): 5 to 10 µM; Cytotoxicity (MDA-MB-231 cells; commercial kinase inhibitors): ++ (50 % ≤ cytotoxicity < 85 %); IC50 (4T1 cells; commercial kinase inhibitors): 5 to 10 µM; Cytotoxicity (4T1 cells; commercial kinase inhibitors): +++ (cytotoxicity ≥ 85 %)
